Source: PubChem BioAssay (NCI)
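In this assay, cells in 96-well plates receive the compound at five concentrations for 48 hours. Endpoints are linearly interpolated between the surrounding concentrations. The concentration for 50% growth inhibition is given as GI50. The concentration for full growth arrest is given as TGI.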

Key:
Experiment in all cases: NCI anticancer screen, dose series, 48 h
[1] = tested on: 786-0 renal
[2] = tested on: A498 renal
[3] = tested on: A549 NSCLC
[4] = tested on: ACHN renal
[5] = tested on: BT-549 breast
[6] = tested on: CAKI-1 renal
[7] = tested on: CCRF-CEM leukemia
[8] = tested on: COLO 205 colon
[9] = tested on: DU-145 prostate
[10] = tested on: EKVX NSCLC
[11] = tested on: HCC-2998 colon
[12] = tested on: HCT-116 colon
[13] = tested on: HCT-15 colon
[14] = tested on: HL-60(TB) leukemia
[15] = tested on: HOP-62 NSCLC
[16] = tested on: HOP-92 NSCLC
[17] = tested on: HS 578T breast
[18] = tested on: HT29 colon
[19] = tested on: IGROV1 ovarian
[20] = tested on: K-562 leukemia
[21] = tested on: KM12 colon
[22] = tested on: LOX IMVI melanoma
[23] = tested on: M14 melanoma
[24] = tested on: MALME-3M melanoma
[25] = tested on: MCF7 breast
[26] = tested on: MDA-MB-231 breast
[27] = tested on: MDA-MB-435
[28] = tested on: MOLT-4 leukemia
[29] = tested on: NCI-H226 lung
[30] = tested on: NCI-H23 lung
[31] = tested on: NCI-H460 lung
[32] = tested on: NCI-H522 lung
[33] = tested on: NCI/ADR-RES ovarian
[34] = tested on: OVCAR-3 ovarian
[35] = tested on: OVCAR-4 ovarian
[36] = tested on: OVCAR-5 ovarian
[37] = tested on: OVCAR-8 ovarian
[38] = tested on: PC-3 prostate
[39] = tested on: RPMI-8226 leukemia
[40] = tested on: RXF 393 renal
[41] = tested on: SF-268 CNS
[42] = tested on: SF-295 CNS
[43] = tested on: SF-539 CNS
[44] = tested on: SK-MEL-2 melanoma
[45] = tested on: SK-MEL-28 melanoma
[46] = tested on: SK-MEL-5 melanoma
[47] = tested on: SK-OV-3 ovarian
[48] = tested on: SN12C renal
[49] = tested on: SNB-19 CNS
[50] = tested on: SNB-75 CNS
[51] = tested on: SR leukemia
[52] = tested on: SW-620 colon
[53] = tested on: T-47D breast
[54] = tested on: TK-10 renal
[55] = tested on: U251 CNS
[56] = tested on: UACC-257 melanoma
[57] = tested on: UACC-62 melanoma
[58] = tested on: UO-31 renal

## COc1ccc(/C=C2\CS(=O)(=O)C/C(=C\c3ccc(OC)cc3)C2=O)cc1
[1]
  GI50: 1750 nM
  TGI: 3210 nM
[2]
  GI50: 1760 nM
  TGI: 3670 nM
[3]
  GI50: 2000 nM
  TGI: 5290 nM
[4]
  GI50: 1790 nM
  TGI: 3350 nM
[5]
  GI50: 2170 nM
  TGI: 5280 nM
[6]
  GI50: 2160 nM
  TGI: 6100 nM
[7]
  GI50: 1350 nM
[8]
  GI50: 1520 nM
  TGI: 2940 nM
[9]
  GI50: 2000 nM
  TGI: 5410 nM
[10]
  GI50: 3070 nM
  TGI: > 36800 nM
[11]
  GI50: 1710 nM
  TGI: 3090 nM
[12]
  GI50: 472 nM
  TGI: 1430 nM
[13]
  GI50: 1840 nM
  TGI: 4820 nM
[14]
  GI50: 1960 nM
  TGI: 5730 nM
[15]
  GI50: 2010 nM
  TGI: 4360 nM
[16]
  GI50: 8740 nM
  TGI: 69000 nM
[17]
  GI50: 3070 nM
  TGI: > 31300 nM
[18]
  GI50: 999 nM
[19]
  GI50: 1750 nM
  TGI: 5710 nM
[20]
  GI50: 1160 nM
[21]
  GI50: 676 nM
  TGI: 1890 nM
[22]
  GI50: 646 nM
  TGI: 1910 nM
[23]
  GI50: 1610 nM
  TGI: 3090 nM
[24]
  GI50: 2410 nM
  TGI: 7840 nM
[25]
  GI50: 510 nM
  TGI: 7830 nM
[26]
  GI50: 3010 nM
  TGI: 9650 nM
[27]
  GI50: 1400 nM
  TGI: 5290 nM
[28]
  GI50: 2220 nM
  TGI: > 22200 nM
[29]
  GI50: 16800 nM
  TGI: > 100000 nM
[30]
  GI50: 1640 nM
  TGI: 3320 nM
[31]
  GI50: 1900 nM
  TGI: 4490 nM
[32]
  GI50: 1150 nM
  TGI: 3020 nM
[33]
  GI50: 2060 nM
  TGI: 4870 nM
[34]
  GI50: 1790 nM
  TGI: 4110 nM
[35]
  GI50: 3190 nM
  TGI: > 30800 nM
[36]
  GI50: 3160 nM
  TGI: 10300 nM
[37]
  GI50: 1210 nM
  TGI: 6680 nM
[38]
  GI50: 2090 nM
  TGI: 18100 nM
[39]
  GI50: 567 nM
  TGI: 4890 nM
[40]
  GI50: 1480 nM
  TGI: 2900 nM
[41]
  GI50: 1700 nM
  TGI: 5340 nM
[42]
  GI50: 2420 nM
  TGI: 6590 nM
[43]
  GI50: 2010 nM
  TGI: 4280 nM
[44]
  GI50: 3090 nM
  TGI: > 20900 nM
[45]
  GI50: 1700 nM
  TGI: 3170 nM
[46]
  GI50: 1570 nM
  TGI: 2920 nM
[47]
  GI50: 3300 nM
  TGI: 26200 nM
[48]
  GI50: 1780 nM
  TGI: 4040 nM
[49]
  GI50: 4210 nM
  TGI: 18100 nM
[50]
  GI50: 8180 nM
  TGI: > 47400 nM
[51]
  GI50: 182 nM
  TGI: 423 nM
[52]
  GI50: 1320 nM
  TGI: 3370 nM
[53]
  GI50: 2910 nM
  TGI: 28400 nM
[54]
  GI50: 2670 nM
  TGI: 6910 nM
[55]
  GI50: 497 nM
  TGI: 1850 nM
[56]
  GI50: 1670 nM
  TGI: 3630 nM
[57]
  GI50: 1440 nM
  TGI: 2780 nM
[58]
  GI50: 1450 nM
  TGI: 3020 nM
